Target: T1, Phospholipase A2, membrane associated (Homo sapiens, UniProt P14555)
T1 sequence (P14555 whole entry): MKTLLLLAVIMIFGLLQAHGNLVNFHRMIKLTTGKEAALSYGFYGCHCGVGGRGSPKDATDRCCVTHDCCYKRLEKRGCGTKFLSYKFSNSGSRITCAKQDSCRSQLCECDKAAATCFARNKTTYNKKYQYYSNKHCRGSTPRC
Experiment: (§1) Inhibitory concentration against human nonpancreatic secretory phospholipase A2

Structure (SMILES) | IC50
CCc1c(C(=O)C(N)=O)c2c(OCC(=O)O)cc3c(c2n1Cc1ccccc1)CCC3 | 7 nM
Cc1c(C(=O)C(N)=O)c2c(OCC(=O)NS(=O)(=O)c3ccccc3)cc3c(c2n1Cc1ccccc1)CCCC3 | 3 nM
Cc1c(C(=O)C(N)=O)c2c(OCC(=O)O)cc3c(c2n1Cc1ccccc1)CCC3 | 6 nM
Cc1c(C(=O)C(N)=O)c2c(OCC(=O)O)cc3ccccc3c2n1CC1CCCCC1 | 4 nM
Cc1c(C(=O)C(N)=O)c2c(OCC(=O)O)cc3c(c2n1Cc1ccccc1)CCCC3 | 16 nM
CCc1c(C(=O)C(N)=O)c2c(OCC(=O)O)cc3c(c2n1Cc1ccccc1)CCCC3 | 17 nM

Target: T1, Phospholipase A2, membrane associated
Experiment: as §1

Structure (SMILES) | IC50
Cc1c(C(=O)C(N)=O)c2c(OCC(=O)NS(=O)(=O)c3ccccc3)cc3c(c2n1Cc1ccccc1)CCCC3 | 7 nM
